Laboratory results taken from patent publication US11911394B2, “Compound and method for the prevention of transmission of influenza virus” (Hoffmann-La Roche Inc., priority 2019, dated 2024).

Legend:
Type in all cases: in vivo
[1] = system: influenza A virus A/England/195/2009; test: Example 1 ferret transmission study (direct contact and respiratory droplet), plaque assay of nasal wash; conditions: for Donor ferrets positive for influenza as detected by the plaque assay: donor ferrets treated 24 h post infection; for Donor ferrets positive for influenza as detected by the plaque assay / Sentinel DC ferrets positive for influenza as detected by the plaque assay / Sentinel RD ferrets positive for influenza as detected by the plaque assay: positive/total; for respiratory droplet transmission: from treated donor ferrets to sentinels; for mean time to virus shedding, direct contact sentinels: sentinels exposed to treated donors, control 4.25 days; for Sentinel DC ferrets positive for influenza as detected by the plaque assay: untreated direct contact sentinels of treated donors; for mean time to virus shedding, respiratory droplet exposed sentinels: untreated donors 4.5 days, baloxavir value from the one infected sentinel; for Sentinel RD ferrets positive for influenza as detected by the plaque assay: untreated respiratory droplet sentinels of treated donors
[2] = system: Influenza A/Perth/265/2009 H1N1pdm09 virus; test: Example 2 ferret contact transmission study, TCID50 assay of nasal wash; conditions: for treated donors TCID50-positive (shedding detectable infectious virus) at donor endpoint: Example 2, all experiment schedules (Experiments 1-3); for recipient ferrets shedding detectable infectious virus (TCID50) following contact exposure to donor: donor treated 1 DPI; for recipient ferrets shedding detectable infectious virus (TCID50) following contact exposure to donor / donors shedding detectable infectious virus (TCID50) at 3 DPI endpoint / donors shedding detectable infectious virus (TCID50) at 4 DPI endpoint / ferrets shedding infectious virus (TCID50), FIG. 13A recipient results / donors shedding infectious virus (TCID50) at 4 DPI endpoint: positive/total; for donors shedding detectable infectious virus (TCID50) at 3 DPI endpoint / donors shedding detectable infectious virus (TCID50) at 4 DPI endpoint: treatment 1 DPI; for donor group titer (TCID50) compared to placebo group: baloxavir at 2 DPI (p≤0.05), 3 DPI and 4 DPI (p≤0.001), oseltamivir on 2-4 DPI; for ferrets shedding infectious virus (TCID50), FIG. 13A recipient results: donor treated 2 DPI, printed as donors at 4 DPI endpoint; for donors shedding infectious virus (TCID50) at 4 DPI endpoint: treatment 2 DPI; for effect of donor treatment on contact transmission to naïve ferrets: Example 2 Experiments 1-3
A/Perth/265/2009 virus = test: Example 2 ferret contact transmission study, serology (HI assay) of recipient sera; conditions: for recipients demonstrating antibody responses to donor virus (serology): positive/total
Source text: Sera were collected from endpoint recipient blood samples by centrifugation, and non-specific inhibitors of agglutination were removed by treatment with receptor-destroying enzyme (RDE) (Denka Seiken) according to manufacturer's instructions. Treated sera were adsorbed with turkey RBCs prior to HI assay to remove non-specific agglutination factors. Briefly, sera (initially 1:20 dilution) were serially diluted twofold in PBS in V-bottom 96-well plates (final row left as PBS negative control). A/Perth/265/2009 virus adjusted to 4 haemagglutination units in 25 μL was mixed to all sample wells for 1 hr incubation at room temperature, followed by 45 min incubation of 1% turkey RBC. […] HI titre was calculated as the reciprocal of the highest serum dilution at which agglutination was inhibited.
This study consisted of three separate Experiments using different schedules of antiviral treatment and timing of naïve animal co-housing. In each experiment, twenty-four ferrets were randomly assigned to three groups (n=8): BXA, OST and placebo. Within each group, n=4 ferrets were designated as treated donor ferrets, and n=4 as naïve recipients. On 0 DPI (days post inoculation) for each experiment, all donor ferrets (each individually housed) were intranasally inoculated with influenza A/Perth/265/2009 at […] tissue culture infective doses (TCID50) in 40 μL of phosphate-buffered saline (PBS). As described above, donors in the BXA and placebo groups received a single antiviral treatment, whereas OST-group donors were treated daily until endpoint (excluding cull day). At the designated time point, naïve recipient ferrets were co-housed with treated donor ferrets (1:1 per cage) for a contact exposure period of 48 hr.
(§1) Experiment 2: Antiviral treatment commenced at 1 DPI, and recipient co-housing was delayed until 24 hr following treatment (2 DPI). Body weight and temperature were monitored daily from all animals. Daily nasal wash samples were collected using 1 mL of PBS from 1 DPI to 4 DPI for donor animals, and 1 DPE to 10 DPE for recipient animals. Donors were sacrificed at 4 DPI (2 DPE), and blood was collected from BXA- and placebo-treated ferrets by cardiac puncture. Recipients were maintained until 16 DPE, at which time blood was collected by cardiac puncture.
as §1, with “Experiment 3:” for “Experiment 2:”, “at 2” for “at 1”, “and recipients were co-housed immediately afterwards.” for “and recipient co-housing was delayed until 24 hr following treatment (2 DPI).”

[3] = Example 5 pharmacokinetic analysis in ferret, plasma concentration by LC-MS/MS
Procedure: Outbred female and ferrets 28 months old and weighing between 650-802 g were obtained from Japan SLC, Inc. Identification was conducted by labeling sequential number in front of each cage. Animals were monitored at least once daily for their clinical observations, and had ad libitum access to pellet feed (LabDiet High Density Ferret Diet, Lab Supply, USA) and water. Ferrets at endpoint were euthanized by exsanguination under anesthesia by inhalation with isoflurane (Pfizer). Ferret studies were performed in Shionogi Pharmaceutical Research Center, Shionogi & Co., Ltd. (Osaka, Japan), according to the animal study protocol which was approved by the Institutional Animal Care and Use Committee in Shionogi.
The active form baloxavir acid (S-033447, hereafter BXA) was provided by Test Substance Control Personnel, Shionogi & Co., Ltd., Japan. The vehicle for BXA delivery was methyl cellulose (Fuji-Film Wako, Japan) in 0.5 w/v % aqueous solution prepared with sterile water (hereafter MC solution). BXA in suspension with MC solution (1 mg/mL) was prepared using an agate mortar and pestle, and was delivered to reversibly anaesthetised animals in a single treatment consisting of 4 subcutaneous injections at 4 locations on the dorsal region (total dose 4 mg/kg per animal). […]
The plasma concentration of BXA was determined by LC-MS/MS, consisting of LC-20A system (Shimadzu Corporation, Japan) and API 5000 (AB SCIEX, USA). […]
Precursor/product transitions (m/z) of 484/247 and 490/247 were monitored for BXA and internal standard, BXA-racemate-d4^18O, respectively. […]
The plasma concentrations of BXA for each individual ferret were calculated by Analyst software (AB SCIEX, USA). The mean value and standard deviation were also calculated using individual data by Microsoft Excel (Microsoft Co., USA).

[4] = Example 2 Experiment 1, baloxavir at 2 DPI (p≤0.05) and 3 DPI (p≤0.001)
[5] = Example 2 Experiment 1, co-housing 1 DPI
[6] = Example 2 Experiment 2, co-housing 2 DPI
[7] = Example 2 Experiment 3, baloxavir at 3 and 4 DPI (p≤0.001), oseltamivir on 3 DPI (p≤0.05)
[8] = Example 2 Experiment 3, co-housing 2 DPI

SMILES | Donor ferrets positive for influenza as detected by the plaque assay [1] | respiratory droplet transmission [1] [%] | mean time to virus shedding, direct contact sentinels [1] [days] | Sentinel DC ferrets positive for influenza as detected by the plaque assay [1] | mean time to virus shedding, respiratory droplet exposed sentinels [1] [days] | Sentinel RD ferrets positive for influenza as detected by the plaque assay [1] | treated donors TCID50-positive (shedding detectable infectious virus) at donor endpoint [2] | donor group titer (TCID50) compared to placebo-group [2, 4] | recipient ferrets shedding detectable infectious virus (TCID50) following contact exposure to donor [2, 5] | donors shedding detectable infectious virus (TCID50) at 3 DPI endpoint ([2]; Example 2 Experiment 1) | donor group titer (TCID50) compared to placebo group ([2]; Example 2 Experiment 2) | recipient ferrets shedding detectable infectious virus (TCID50) following contact exposure to donor [2, 6] | donors shedding detectable infectious virus (TCID50) at 4 DPI endpoint ([2]; Example 2 Experiment 2) | donor group titer (TCID50) compared to placebo-group [2, 7] | ferrets shedding infectious virus (TCID50), FIG. 13A recipient results [2, 8] | donors shedding infectious virus (TCID50) at 4 DPI endpoint ([2]; Example 2 Experiment 3) | effect of donor treatment on contact transmission to naïve ferrets [2] | recipients demonstrating antibody responses to donor virus (serology) (A/Perth/265/2009 virus; Example 2 Experiment 2) | further results
O=C1c2c(O)c(=O)ccn2N([C@@H]2c3ccccc3SCc3c2ccc(F)c3F)[C@@H]2COCCN12 [baloxavir, baloxavir acid] | 3/4 | 25 | 5.5 | 4/4 | 8 | 1/4 | 0/4 and No | significantly lower | 1/4 | 0/4 | significantly lower | 1/4 | 0/4 | significantly lower | 2/4 | 0/4 | reduces | 2/4 | mean viral titres compared to the placebo-group ([2]; Example 2, 24 hours following treatment, all experiment conditions (p≤0.05)): significantly reduced; frequency of infectious viral shedding in recipients ([2]; Example 2, donor treatment at 1 DPI): 25%; frequency of infectious viral shedding in recipients ([2]; Example 2, donor treatment at 2 DPI): 50%; infectious virus titers in the URT compared to both placebo and oseltamivir ([2]; Example 2, three independent experiments, single treatment of infected ferrets): significantly reduced; reduction in transmission ([2]; Example 2, treatment 48 hr post infection): 50%; reduction of transmission ([2]; Example 2, treatment within 24 hr of infection): 75%; donor group titer (TCID50) compared to oseltamivir group ([2]; Example 2 Experiment 2, 3-4 DPI (p≤0.01)): significantly lower; donor group titer (TCID50) compared to oseltamivir-group ([2]; Example 2 Experiment 3, 4 DPI (p≤0.001)): lower; reduction of antibody responses in TCID50-negative recipients compared to titres in placebo-group recipients (A/Perth/265/2009 virus; Example 2 Exp. 2 and 3): 16-32 fold; reduction of antibody response in TCID50-negative ferret compared to TCID50-positive ferrets (A/Perth/265/2009 virus; Example 2 Experiment 2, baloxavir-group recipient): > 32 fold change; reduction of antibody titres in TCID50-negative recipients compared to TCID50-positive ferrets (A/Perth/265/2009 virus; Example 2 Experiment 3, TCID50-negative baloxavir-group recipients (2/4)): > 16 fold change; concentration at 168 h ([3]; plasma, subcutaneous, single s.c. suspension 4 mg/kg, 168 hours postdose, read-out: mean plasma concentration at last sampling point): 9.08 ng/mL; time at which mean plasma concentration reached the maximum ([3]; single s.c. suspension 4 mg/kg): 3 hours postdose; mean plasma concentration, maximum ([3]; single s.c. suspension 4 mg/kg (4 locations, 1 mg/kg per location), 3 hours postdose): 26.1 ng/mL
CCOC(=O)C1=C[C@@H](OC(CC)CC)[C@H](NC(C)=O)[C@@H](N)C1 [oseltamivir, oseltamivir phosphate, reference compound] | 4/4 | 100 | 5.5 | 4/4 | 9.3 | 3/4 | 4/4 | no significant difference | 4/4 | 4/4 | no difference | 4/4 | 4/4 | significantly lower | 4/4 | 4/4 | does not reduce | 4/4 | recipients demonstrating evidence of infection by TCID50, qRT-PCR and serology ([2]; Example 2, all experimental conditions): 100%
